In ChEMBL document CHEMBL4007479, “Immunoregulatory effect assessment of a novel melanin and its carboxymethyl derivative” (2017):

Columns and labels:
Assay type in all cases: functional
Mus musculus [1] = assay: (§1) Immuno-regulatory activity in cyclophosphamide-induced immunocompromised Kunming mouse model assessed as SOD activity in spleen at 50 mg/kg administered once daily via gavage for 30 consecutive days measured after 12 hrs of fasting following last dose on day 30 (reference value: 94.84 +/- 3.28)
Mus musculus [2] = assay: as §1, with “peritoneal macrophage phagocytosis rate” for “SOD activity in spleen”, “by Giemsa staining based assay” for “on day 30”, “21.33” for “94.84”, “0.98%)” for “3.28)”
Mus musculus [3] = assay: Immuno-regulatory activity in cyclophosphamide-induced immunocompromised Kunming mouse model assessed as MDA content in serum at 50 mg/kg administered once daily via gavage for 30 consecutive days measured after 12 hrs of fasting following last dose on day 30 (reference value: 2.77 +/- 0.05)
Mus musculus [4] = assay: (§2) Immuno-regulatory activity in cyclophosphamide-induced immunocompromised Kunming mouse model assessed as macrophage elimination ability against foreign substances by measuring carbon clearance index at 200 mg/kg administered once daily via gavage for 30 consecutive days measured after 12 hrs of fasting following last dose (reference value: 2.68 +/- 0.3)
Mus musculus [5] = assay: Immuno-regulatory activity in cyclophosphamide-induced immunocompromised Kunming mouse model assessed as MDA content in spleen at 50 mg/kg administered once daily via gavage for 30 consecutive days measured after 12 hrs of fasting following last dose on day 30 (reference value: 4.9 +/- 0.11)
Mus musculus [6] = assay: (§3) Immuno-regulatory activity in cyclophosphamide-induced immunocompromised Kunming mouse model assessed as enhancement of B cell-mediated humoral immunity by measuring SRBC half hemolysis value at 200 mg/kg administered once daily via gavage for 30 consecutive days and SRBC immunization on day 26 measured after 12 hrs of fasting following last dose on day 30 (reference value: 173.42 +/- 7.75)
Mus musculus [7] = assay: (§4) Immuno-regulatory activity in cyclophosphamide-induced immunocompromised Kunming mouse model assessed as SOD activity in serum at 200 mg/kg administered once daily via gavage for 30 consecutive days measured after 12 hrs of fasting following last dose on day 30 (reference value: 91.98 +/- 3.32)
Mus musculus [8] = assay: as §4, with “peritoneal macrophage phagocytosis rate” for “SOD activity in serum”, “by Giemsa staining based assay” for “on day 30”, “21.33” for “91.98”, “0.98%)” for “3.32)”
Mus musculus [9] = assay: (§5) Immuno-regulatory activity in cyclophosphamide-induced immunocompromised Kunming mouse model assessed as enhancement of T cell-mediated delayed-type hypersensitivity by measuring increase in paw weight at 50 mg/kg administered once daily via gavage for 30 consecutive days and SRBC immunization on day 26 measured after 12 hrs of fasting following last dose on day 30 relative to control
Mus musculus [10] = assay: as §2, with “recovery from spleen damage” for “macrophage elimination ability against foreign substances”, “spleen weight” for “carbon clearance”, “4.59” for “2.68”, “0.28)” for “0.3)”
Mus musculus [11] = assay: (§6) Immuno-regulatory activity in cyclophosphamide-induced immunocompromised Kunming mouse model assessed as peritoneal macrophage phagocytosis index at 200 mg/kg administered once daily via gavage for 30 consecutive days measured after 12 hrs of fasting following last dose by Giemsa staining based assay (reference value: 0.5 +/- 0.03)
Mus musculus [12] = assay: (§7) Immuno-regulatory activity in cyclophosphamide-induced immunocompromised Kunming mouse model assessed as enhancement of B cell-mediated humoral immunity by measuring antibody producing cells in spleen against SRBC at 50 mg/kg administered once daily via gavage for 30 consecutive days measured after 12 hrs of fasting following last dose on day 30 (reference value: 0.48 +/- 0.05)
Mus musculus [13] = assay: as §6, with “50” for “200”
Mus musculus [14] = assay: (§8) Immuno-regulatory activity in cyclophosphamide-induced immunocompromised Kunming mouse model assessed as body weight at 200 mg/kg administered once daily via gavage for 30 consecutive days measured after 12 hrs of fasting following last dose (reference value: 30.3 +/- 2.47 mg)
Mus musculus [15] = assay: Immuno-regulatory activity in cyclophosphamide-induced immunocompromised Kunming mouse model assessed as SOD activity in spleen at 200 mg/kg administered once daily via gavage for 30 consecutive days measured after 12 hrs of fasting following last dose on day 30 (reference value: 94.84 +/- 3.28)
Mus musculus [16] = assay: Immuno-regulatory activity in cyclophosphamide-induced immunocompromised Kunming mouse model assessed as MDA content in serum at 200 mg/kg administered once daily via gavage for 30 consecutive days measured after 12 hrs of fasting following last dose on day 30 (reference value: 2.77 +/- 0.05)
Mus musculus [17] = assay: Immuno-regulatory activity in cyclophosphamide-induced immunocompromised Kunming mouse model assessed as GSH-PX activity in serum at 50 mg/kg administered once daily via gavage for 30 consecutive days measured after 12 hrs of fasting following last dose on day 30 (reference value: 5.66 +/- 0.17)
Mus musculus [18] = assay: Immuno-regulatory activity in cyclophosphamide-induced immunocompromised Kunming mouse model assessed as GSH-PX activity in spleen at 50 mg/kg administered once daily via gavage for 30 consecutive days measured after 12 hrs of fasting following last dose on day 30 (reference value: 7.97 +/- 1.21)
Mus musculus [19] = assay: Immuno-regulatory activity in cyclophosphamide-induced immunocompromised Kunming mouse model assessed as GSH-PX activity in liver at 50 mg/kg administered once daily via gavage for 30 consecutive days measured after 12 hrs of fasting following last dose on day 30 (reference value: 9.52 +/- 0.26)
Mus musculus [20] = assay: Immuno-regulatory activity in cyclophosphamide-induced immunocompromised Kunming mouse model assessed as SOD activity in kidney at 50 mg/kg administered once daily via gavage for 30 consecutive days measured after 12 hrs of fasting following last dose on day 30 (reference value: 198.82 +/- 9.98)
Mus musculus [21] = assay: Immuno-regulatory activity in cyclophosphamide-induced immunocompromised Kunming mouse model assessed as GSH-PX activity in kidney at 200 mg/kg administered once daily via gavage for 30 consecutive days measured after 12 hrs of fasting following last dose on day 30 (reference value: 10.12 +/- 0.25)
Mus musculus [22] = assay: Immuno-regulatory activity in cyclophosphamide-induced immunocompromised Kunming mouse model assessed as MDA content in spleen at 200 mg/kg administered once daily via gavage for 30 consecutive days measured after 12 hrs of fasting following last dose on day 30 (reference value: 4.9 +/- 0.11)
Mus musculus [23] = assay: Immuno-regulatory activity in cyclophosphamide-induced immunocompromised Kunming mouse model assessed as SOD activity in liver at 200 mg/kg administered once daily via gavage for 30 consecutive days measured after 12 hrs of fasting following last dose on day 30 (reference value: 160.65 +/- 3.12)
Mus musculus [24] = assay: Immuno-regulatory activity in cyclophosphamide-induced immunocompromised Kunming mouse model assessed as SOD activity in liver at 50 mg/kg administered once daily via gavage for 30 consecutive days measured after 12 hrs of fasting following last dose on day 30 (reference value: 160.65 +/- 3.12)
Mus musculus [25] = assay: Immuno-regulatory activity in cyclophosphamide-induced immunocompromised Kunming mouse model assessed as MDA content in liver at 50 mg/kg administered once daily via gavage for 30 consecutive days measured after 12 hrs of fasting following last dose on day 30 (reference value: 3.34 +/- 0.18)
Mus musculus [26] = assay: as §8, with “recovery from thymus damage by measuring thymus” for “body”, “weight index” for “weight”, “50” for “200”, “0.98” for “30.3”, “0.14)” for “2.47 mg)”
Mus musculus [27] = assay: as §1, with “recovery from” for “SOD activity in”, “spleen damage by measuring spleen weight index” for “spleen”, “dose” for “dose on day 30”, “4.59” for “94.84”, “0.28)” for “3.28)”
Mus musculus [28] = assay: as §5, with “200” for “50”
Mus musculus [29] = assay: Immuno-regulatory activity in cyclophosphamide-induced immunocompromised Kunming mouse model assessed as GSH-PX activity in liver at 200 mg/kg administered once daily via gavage for 30 consecutive days measured after 12 hrs of fasting following last dose on day 30 (reference value: 9.52 +/- 0.26)
Mus musculus [30] = assay: Immuno-regulatory activity in cyclophosphamide-induced immunocompromised Kunming mouse model assessed as MDA content in kidney at 50 mg/kg administered once daily via gavage for 30 consecutive days measured after 12 hrs of fasting following last dose on day 30 (reference value: 2.35 +/- 0.06)
Mus musculus [31] = assay: Immuno-regulatory activity in cyclophosphamide-induced immunocompromised Kunming mouse model assessed as SOD activity in kidney at 200 mg/kg administered once daily via gavage for 30 consecutive days measured after 12 hrs of fasting following last dose on day 30 (reference value: 198.82 +/- 9.98)
Mus musculus [32] = assay: (§9) Immuno-regulatory activity in cyclophosphamide-induced immunocompromised Kunming mouse model assessed as concanavalin A-induced lymphocyte proliferation stimulate index in spleen at 200 mg/kg administered once daily via gavage for 30 consecutive days measured after 12 hrs of fasting following last dose on day 30 by MTT assay (reference value: 0.054 +/- 0.001)
Mus musculus [33] = assay: Immuno-regulatory activity in cyclophosphamide-induced immunocompromised Kunming mouse model assessed as SOD activity in serum at 50 mg/kg administered once daily via gavage for 30 consecutive days measured after 12 hrs of fasting following last dose on day 30 (reference value: 91.98 +/- 3.32)
Mus musculus [34] = assay: as §3, with “50” for “200”
Mus musculus [35] = assay: Immuno-regulatory activity in cyclophosphamide-induced immunocompromised Kunming mouse model assessed as MDA content in kidney at 200 mg/kg administered once daily via gavage for 30 consecutive days measured after 12 hrs of fasting following last dose on day 30 (reference value: 2.35 +/- 0.06)
Mus musculus [36] = assay: Immuno-regulatory activity in cyclophosphamide-induced immunocompromised Kunming mouse model assessed as GSH-PX activity in spleen at 200 mg/kg administered once daily via gavage for 30 consecutive days measured after 12 hrs of fasting following last dose on day 30 (reference value: 7.97 +/- 1.21)
Mus musculus [37] = assay: Immuno-regulatory activity in cyclophosphamide-induced immunocompromised Kunming mouse model assessed as MDA content in liver at 200 mg/kg administered once daily via gavage for 30 consecutive days measured after 12 hrs of fasting following last dose on day 30 (reference value: 3.34 +/- 0.18)
Mus musculus [38] = assay: as §9, with “50” for “200”
Mus musculus [39] = assay: Immuno-regulatory activity in cyclophosphamide-induced immunocompromised Kunming mouse model assessed as body weight at 50 mg/kg administered once daily via gavage for 30 consecutive days measured after 12 hrs of fasting following last dose (reference value: 30.3 +/- […])
Mus musculus [40] = assay: as §2, with “50” for “200”
Mus musculus [41] = assay: Immuno-regulatory activity in cyclophosphamide-induced immunocompromised Kunming mouse model assessed as GSH-PX activity in kidney at 50 mg/kg administered once daily via gavage for 30 consecutive days measured after 12 hrs of fasting following last dose on day 30 (reference value: 10.12 +/- 0.25)
Mus musculus [42] = assay: as §7, with “200” for “50”
Mus musculus [43] = assay: as §8, with “recovery from thymus damage by measuring thymus” for “body”, “weight index” for “weight”, “0.98” for “30.3”, “0.14)” for “2.47 mg)”
Mus musculus [44] = assay: Immuno-regulatory activity in cyclophosphamide-induced immunocompromised Kunming mouse model assessed as GSH-PX activity in serum at 200 mg/kg administered once daily via gavage for 30 consecutive days measured after 12 hrs of fasting following last dose on day 30 (reference value: 5.66 +/- 0.17)

`O=C(O)C1c2cc(O)c(O)c3sc4c5c(O)[nH]c6cc(O)c(O)c(c65)c5c6ccc7ccc1c(c76)n(c23)c45` (centres undefined) gave an Activity (Mus musculus [1]) of 106.25, an Activity (Mus musculus [2]) of 22.14% and an Activity (Mus musculus [3]) of 2.66. It also gave an Activity_index (Mus musculus [4]) of 3.54, an Activity (Mus musculus [5]) of 4.54 and an Activity (Mus musculus [6]) of 182.25. The Activity (Mus musculus [7]) was 104.09, the Activity (Mus musculus [8]) was 26.31% and the Activity (Mus musculus [9]) was 42.87%. The Activity_index (Mus musculus [10]) was 5.13 mg/g, the Activity_index (Mus musculus [11]) was 0.79 and the Activity (Mus musculus [12]) was 0.52. It also gave an Activity_index (Mus musculus [13]) of 0.53, an Activity (Mus musculus [14]) of 35.7 g and an Activity (Mus musculus [15]) of 110.54. It also gave an Activity (Mus musculus [16]) of 2, an Activity (Mus musculus [17]) of 5.76 and an Activity (Mus musculus [18]) of 8.76. For the same compound, the Activity (Mus musculus [19]) was 9.76, the Activity (Mus musculus [20]) was 218.42 and the Activity (Mus musculus [21]) was 16.79. The Activity (Mus musculus [22]) was 3.13, the Activity (Mus musculus [23]) was 202.26 and the Activity (Mus musculus [24]) was 174.51. The Activity (Mus musculus [25]) was 2.99, the Activity_index (Mus musculus [26]) was 1.01 mg/g and the Activity_index (Mus musculus [27]) was 4.61 mg/g. For the same compound, the Activity (Mus musculus [28]) was 79.3%, the Activity (Mus musculus [29]) was 16.1 and the Activity (Mus musculus [30]) was 2.07. For the same compound, the Activity (Mus musculus [31]) was 233.49, the Activity_index (Mus musculus [32]) was 0.072 and the Activity (Mus musculus [33]) was 94.15. It also gave an Activity (Mus musculus [34]) of 175.62, an Activity (Mus musculus [35]) of 1.83 and an Activity (Mus musculus [36]) of 11.99. The Activity (Mus musculus [37]) was 2.25, the Activity_index (Mus musculus [38]) was 0.061 and the Activity (Mus musculus [39]) was 32.9 g. For the same compound, the Activity_index (Mus musculus [40]) was 2.95, the Activity (Mus musculus [41]) was 11.57 and the Activity (Mus musculus [42]) was 0.62. It also gave an Activity_index (Mus musculus [43]) of 1.37 mg/g and an Activity (Mus musculus [44]) of 7.27.
